Measurements from EP4817687A2, “NUCLEOTIDE AND NUCLEOSIDE THERAPEUTIC COMPOSITIONS AND USES RELATED THERETO” (Emory University, priority 2013, dated 2015).
Like-named read-outs stand apart in the source and are kept apart here. Values belong to the molecule of their own block, whether it stands above or below them.

Assays:
Human DNA pol α = molecular target: T1, Human DNA pol α (Homo sapiens, UniProt P09884); assay: Human DNA Polymerase Inhibition Assay, pol α; type: biochemical
T1 sequence (P09884 1-1462): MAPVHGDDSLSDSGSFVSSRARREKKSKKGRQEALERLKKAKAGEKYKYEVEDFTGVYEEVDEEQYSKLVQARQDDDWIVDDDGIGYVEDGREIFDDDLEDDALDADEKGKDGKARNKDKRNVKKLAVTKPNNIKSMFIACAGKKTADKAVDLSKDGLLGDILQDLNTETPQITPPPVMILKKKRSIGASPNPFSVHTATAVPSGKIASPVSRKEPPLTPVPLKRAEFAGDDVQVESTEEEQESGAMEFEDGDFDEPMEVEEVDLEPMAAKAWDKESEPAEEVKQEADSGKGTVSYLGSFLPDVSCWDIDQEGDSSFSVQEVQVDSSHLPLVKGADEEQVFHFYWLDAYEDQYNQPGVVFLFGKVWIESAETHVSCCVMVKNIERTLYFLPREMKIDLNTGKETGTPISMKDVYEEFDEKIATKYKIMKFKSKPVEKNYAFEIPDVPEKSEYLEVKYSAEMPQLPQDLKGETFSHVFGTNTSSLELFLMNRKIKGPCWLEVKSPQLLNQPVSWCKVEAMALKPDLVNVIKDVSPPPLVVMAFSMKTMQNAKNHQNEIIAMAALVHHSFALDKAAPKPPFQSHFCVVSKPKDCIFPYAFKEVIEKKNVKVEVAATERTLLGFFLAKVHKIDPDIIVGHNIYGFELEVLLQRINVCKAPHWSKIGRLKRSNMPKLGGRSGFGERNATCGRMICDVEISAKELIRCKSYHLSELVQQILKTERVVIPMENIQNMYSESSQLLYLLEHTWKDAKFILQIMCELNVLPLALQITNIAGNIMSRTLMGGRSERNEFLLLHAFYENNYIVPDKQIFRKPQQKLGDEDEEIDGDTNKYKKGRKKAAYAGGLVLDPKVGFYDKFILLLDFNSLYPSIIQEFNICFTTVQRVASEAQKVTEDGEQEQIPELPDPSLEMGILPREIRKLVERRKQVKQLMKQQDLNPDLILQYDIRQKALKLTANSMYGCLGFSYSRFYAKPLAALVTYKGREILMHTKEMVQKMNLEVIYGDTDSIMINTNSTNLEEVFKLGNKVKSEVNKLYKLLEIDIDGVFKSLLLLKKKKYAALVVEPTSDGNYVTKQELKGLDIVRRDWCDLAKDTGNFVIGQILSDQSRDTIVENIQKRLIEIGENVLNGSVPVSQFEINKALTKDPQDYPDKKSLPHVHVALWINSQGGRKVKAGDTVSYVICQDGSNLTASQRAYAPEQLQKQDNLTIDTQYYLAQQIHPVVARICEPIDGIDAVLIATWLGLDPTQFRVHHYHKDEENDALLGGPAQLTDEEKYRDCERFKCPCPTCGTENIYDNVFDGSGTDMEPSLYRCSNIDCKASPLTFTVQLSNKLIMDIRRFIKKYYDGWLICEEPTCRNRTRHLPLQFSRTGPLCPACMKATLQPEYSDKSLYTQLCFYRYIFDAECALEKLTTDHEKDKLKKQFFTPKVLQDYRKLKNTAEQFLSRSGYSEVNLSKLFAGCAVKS

Human DNA pol γ = molecular target: T2, Human DNA pol γ (Homo sapiens, UniProt P54098); assay: Human DNA Polymerase Inhibition Assay, pol γ; type: biochemical
T2 sequence (P54098 1-1239): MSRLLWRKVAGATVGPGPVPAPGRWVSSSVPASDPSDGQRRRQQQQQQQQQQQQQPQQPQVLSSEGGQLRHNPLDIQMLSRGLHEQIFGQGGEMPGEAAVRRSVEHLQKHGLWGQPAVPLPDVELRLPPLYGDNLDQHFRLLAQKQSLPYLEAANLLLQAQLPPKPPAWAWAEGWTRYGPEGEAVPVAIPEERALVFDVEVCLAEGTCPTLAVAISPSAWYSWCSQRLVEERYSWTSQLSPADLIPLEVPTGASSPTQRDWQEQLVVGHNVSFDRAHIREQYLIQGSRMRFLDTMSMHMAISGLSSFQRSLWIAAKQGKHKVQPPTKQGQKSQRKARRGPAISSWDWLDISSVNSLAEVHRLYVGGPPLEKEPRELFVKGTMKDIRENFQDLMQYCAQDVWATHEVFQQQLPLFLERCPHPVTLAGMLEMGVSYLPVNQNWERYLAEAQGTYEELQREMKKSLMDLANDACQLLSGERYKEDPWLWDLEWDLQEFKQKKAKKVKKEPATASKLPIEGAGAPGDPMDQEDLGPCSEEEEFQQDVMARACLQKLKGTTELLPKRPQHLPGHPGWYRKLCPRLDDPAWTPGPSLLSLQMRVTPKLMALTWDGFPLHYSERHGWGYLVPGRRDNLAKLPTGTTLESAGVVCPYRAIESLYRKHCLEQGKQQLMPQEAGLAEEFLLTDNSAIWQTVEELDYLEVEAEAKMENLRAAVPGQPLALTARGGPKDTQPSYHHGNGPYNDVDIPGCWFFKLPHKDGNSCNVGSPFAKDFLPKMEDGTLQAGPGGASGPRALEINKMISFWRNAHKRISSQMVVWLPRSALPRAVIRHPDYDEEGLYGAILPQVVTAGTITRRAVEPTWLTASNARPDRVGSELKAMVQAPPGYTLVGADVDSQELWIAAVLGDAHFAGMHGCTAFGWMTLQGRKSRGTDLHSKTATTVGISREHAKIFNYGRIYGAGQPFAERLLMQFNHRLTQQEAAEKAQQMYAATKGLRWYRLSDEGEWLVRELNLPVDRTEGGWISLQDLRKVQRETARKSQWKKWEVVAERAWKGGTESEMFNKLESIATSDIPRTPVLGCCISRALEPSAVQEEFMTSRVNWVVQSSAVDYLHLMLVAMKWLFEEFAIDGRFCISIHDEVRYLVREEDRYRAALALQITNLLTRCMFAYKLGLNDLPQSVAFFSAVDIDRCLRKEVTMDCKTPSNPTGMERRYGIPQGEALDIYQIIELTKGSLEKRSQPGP

HepG2 = assay: Cytotoxicity panel (CC50), HepG2; type: cell-based; conditions: HepG2
Huh-7 = assay: Cytotoxicity panel (CC50), Huh-7; type: cell-based, human; conditions: Huh-7
A204 = assay: Cytotoxicity panel (CC50), A204; type: cell-based; conditions: A204
BxPC3 = assay: Cytotoxicity panel (CC50), BxPC3; type: cell-based; conditions: BxPC3
H9c = assay: Cytotoxicity panel (CC50), H9c; type: cell-based; conditions: H9c
IEC-6 = assay: Cytotoxicity panel (CC50), IEC-6; type: cell-based; conditions: IEC-6
[1] = tested on: 2b (GT1b/2b NS5B chimera); assay: microbe, parasite or virus in culture; type: cell-based, HCV; conditions: Hepatitis C virus, read-out: EC50(µM) 2b (GT1b/2b NS5B chimera)
GT1b-NS5B-S96T = assay: microbe, parasite or virus in culture; type: cell-based, HCV; conditions: Hepatitis C virus, read-out: EC50(µM) GT1b-NS5B-S96T
[2] = tested on: 4a (GT1b/4a NS5B chimera); assay: microbe, parasite or virus in culture; type: cell-based, HCV; conditions: Hepatitis C virus, read-out: EC50(µM) 4a (GT1b/4a NS5B chimera)
[3] = tested on: 3a (GT1b/3a NS5B chimera); assay: microbe, parasite or virus in culture; type: cell-based, HCV; conditions: Hepatitis C virus, read-out: EC50(µM) 3a (GT1b/3a NS5B chimera)
[4] = Cytotoxicity (CC50) in the GT1b replicon test; type: cell-based; conditions: gt1b replicon cells
GT1b-NS5B-S282T = assay: microbe, parasite or virus in culture; type: cell-based, HCV; conditions: Hepatitis C virus, read-out: EC50(µM) GT1b-NS5B-S282T
[5] = Anti-Dengue assay, toxicity (XTT) in Vero cells; conditions: monkey
Dengue Type 2 = assay: Anti-Dengue Virus Cytoprotection Assay, Dengue Type 2
[6] = Anti-Dengue assay, toxicity (XTT) in Huh-7 cells; conditions: human
[7] = Huh-7, read-out: Dengue Type 2 Huh-7 Cells (EC50 uM)
[8] = Vero, read-out: Dengue Type 2 Vero Cells (EC50 uM)

IC50 (Human DNA pol α): > 1000 µM | IC50 (Human DNA pol γ): > 1000 µM
SMILES: C[C@@]1(O)[C@H](O)[C@@H](COP(=O)(O)OP(=O)(O)OP(=O)(O)O)O[C@H]1n1ccc(=O)[nH]c1=S

SMILES: CC(C)OC(=O)[C@H](C)NP(=O)(OC[C@H]1O[C@@H](n2ccc(=S)[nH]c2=O)[C@H](O)[C@@H]1O)Oc1ccccc1 (stereo partly drawn) [drawing 445]
CC50 (HepG2): > 400 µM

SMILES: CC(C)OC(=O)[C@H](C)NP(=O)(OC[C@H]1O[C@@H](n2ccc(=S)[nH]c2=O)[C@](C)(O)[C@@H]1O)Oc1ccccc1 (stereo partly drawn) [drawing 447]
CC50 (Huh-7): > 400 µM | CC50 (A204): > 200 µM | CC50 (BxPC3): > 300 µM | CC50 (H9c): > 200 µM | CC50 (IEC-6): > 400 µM

SMILES: CC(C)OC(=O)[C@H](C)NP(=O)(OC[C@H]1O[C@@H](n2ccc(=O)[nH]c2=S)[C@](C)(O)[C@@H]1O)Oc1ccccc1 (stereo partly drawn) [drawing 470]
EC50 [1]: 0.083 µM | EC50 (GT1b-NS5B-S96T): 0.132 µM | EC50 [2]: 0.0371 µM | EC50 [3]: 0.0882 µM | CC50 [4]: > 10 µM | EC50 (GT1b-NS5B-S282T): > 10 µM

SMILES: CC(C)OC(=O)[C@H](C)N[P@](=O)(OC[C@H]1O[C@@H](n2ccc(=O)[nH]c2=O)[C@](C)(F)[C@@H]1O)Oc1ccccc1 [drawing 472]
EC50 [1]: 0.0199 µM | EC50 (GT1b-NS5B-S96T): 0.0702 µM | EC50 [2]: 0.0493 µM | EC50 [3]: 0.0385 µM | CC50 [4]: > 2 µM | EC50 (GT1b-NS5B-S282T): 0.287 µM

SMILES: C[C@@]1(O)[C@H](O)[C@@H](CO)O[C@H]1n1ccc(=O)[nH]c1=S [drawing 473]
CC50 [5]: > 100 µM | EC50 (Dengue Type 2; [7]): > 100 µM | EC50 (Dengue Type 2; [8]): 7.79 µM

SMILES: CC(C)OC(=O)[C@H](C)NP(=O)(OC[C@H]1O[C@@H](n2ccc(=O)[nH]c2=S)[C@](C)(O)[C@@H]1O)Oc1ccccc1 (stereo partly drawn) [drawing 474]
CC50 [5]: > 100 µM | CC50 [6]: > 100 µM | EC50 (Dengue Type 2; [7]): 5.1 µM | EC50 (Dengue Type 2; [8]): 2.02 µM
